The results in this text go back to ChEMBL document CHEMBL1145595, “5-Substituted isophthalamides as insulin receptor sensitizers” (Bioorg Med Chem Lett, 2008).

Calls of active or inactive are those of the source. The rule behind the calls is not given here.

Test system in the first test: not listed separately
The test is described as follows: (§1) Activity at Insulin receptor in mouse 3T3-L1 cells assessed as glucose uptake. It is filed as cell-based.
The term EC50 denotes the concentration that produces a half-maximal response. For `O=C(Nc1cc(C(=O)Nc2cccc3cc(S(=O)(=O)O)ccc23)cc(C(=O)Nc2cccc3cc(S(=O)(=O)O)ccc23)c1)c1ccc(Cl)cc1`, the EC50 came out at 72.8 µM. Still for that read-out and setting: under `O=C(Nc1cc(C(=O)Nc2cccc3cc(O)ccc23)cc(C(=O)Nc2cccc3cc(S(=O)(=O)O)ccc23)c1)c1cccc(Cl)c1` stands 61.7 µM; under `O=C(Nc1cc(C(=O)Nc2cccc3cc(S(=O)(=O)O)ccc23)cc(C(=O)Nc2cccc3cc(S(=O)(=O)O)ccc23)c1)c1ccc2ccccc2c1`, 3.7 µM. Still for that read-out and setting: the figure for `O=C(Nc1cc(C(=O)Nc2cccc3cc(S(=O)(=O)O)ccc23)cc(C(=O)Nc2cccc3cc(S(=O)(=O)O)ccc23)c1)c1cccc(F)c1` is 19.4 µM.

Regarding `O=C(Nc1cc(C(=O)Nc2cccc3cc(S(=O)(=O)O)ccc23)cc(C(=O)Nc2cccc3cc(S(=O)(=O)O)ccc23)c1)c1cccc(Cl)c1`, the 50% effective concentration (EC50) was 5.7 µM. Still for that read-out and setting: the figure for `O=C(Nc1ccc2c(O)c(/N=N/c3ccc(/N=N/c4ccc(S(=O)(=O)O)cc4)cc3S(=O)(=O)O)c(S(=O)(=O)O)cc2c1)Nc1ccc2c(O)cc(S(=O)(=O)O)c(/N=N/c3ccc(/N=N/c4ccc(S(=O)(=O)O)cc4)cc3S(=O)(=O)O)c2c1` is 90 µM; for `O=C(Nc1cc(C(=O)Nc2cccc3cc(S(=O)(=O)O)ccc23)cc(C(=O)Nc2cccc3cc(S(=O)(=O)O)ccc23)c1)c1ccc(F)cc1` it is 78.5 µM; for `O=C(Nc1cccc2cc(S(=O)(=O)O)ccc12)c1cc(NC(=O)c2cccc3ccccc23)cc(C(=O)Nc2cccc3cc(S(=O)(=O)O)ccc23)c1` it is 12.8 µM. The same measure, in the same setting: the figure for `O=C(Nc1cccc2cc(S(=O)(=O)O)ccc12)c1cc(C(=O)Nc2cccc3cc(S(=O)(=O)O)ccc23)cc(C(=O)Nc2cccc3cc(S(=O)(=O)O)ccc23)c1` is 135 µM. Regarding `O=C(Nc1cc(C(=O)Nc2cccc3ccccc23)cc(C(=O)Nc2cccc3cc(S(=O)(=O)O)ccc23)c1)c1cccc(Cl)c1`, the EC50 was determined as 66.5 µM.

For `O=C(Nc1cc(C(=O)Nc2cccc3cc(S(=O)(=O)O)ccc23)cc(C(=O)Nc2cccc3cc(S(=O)(=O)O)ccc23)c1)c1cccc([N+](=O)[O-])c1`, the EC50 is 44.5 µM.

Another test deals with 3T3-L1. The description is as §1. It counts as cell-based.
`O=C(Nc1cc(C(=O)Nc2cccc3cc(S(=O)(=O)O)ccc23)cc(C(=O)Nc2cccc3cc(S(=O)(=O)O)ccc23)c1)c1ccncc1`: the outcome was inactive. Same read-out and setting: the entry for `O=C(Nc1cccc2cc(S(=O)(=O)O)ccc12)c1cc(NS(=O)(=O)c2ccc(F)cc2)cc(C(=O)Nc2cccc3cc(S(=O)(=O)O)ccc23)c1` is “inactive”; for `O=C(Nc1cccc2cc(S(=O)(=O)O)ccc12)c1cc(NC(=O)C2CCCCC2)cc(C(=O)Nc2cccc3cc(S(=O)(=O)O)ccc23)c1` it is “inactive”; for `O=C(Cc1cccc(Cl)c1)Nc1cc(C(=O)Nc2cccc3cc(S(=O)(=O)O)ccc23)cc(C(=O)Nc2cccc3cc(S(=O)(=O)O)ccc23)c1` it is “inactive”. For `O=C(Nc1cccc2cc(S(=O)(=O)O)ccc12)c1cc(NC(=O)c2cnc3ccccc3n2)cc(C(=O)Nc2cccc3cc(S(=O)(=O)O)ccc23)c1`, the outcome was inactive. As to `O=C(Nc1cc(C(=O)Nc2cccc3cc(S(=O)(=O)O)ccc23)cc(C(=O)Nc2cccc3cc(S(=O)(=O)O)ccc23)c1)c1ccc([N+](=O)[O-])cc1`, the outcome was inactive. `O=C(Nc1cc(C(=O)Nc2cccc3cc(S(=O)(=O)O)ccc23)cc(C(=O)Nc2cccc3cc(S(=O)(=O)O)ccc23)c1)c1cccnc1`: the result was inactive. The same measure, in the same setting: under `O=C(Nc1cccc(Cl)c1)Nc1cc(C(=O)Nc2cccc3cc(S(=O)(=O)O)ccc23)cc(C(=O)Nc2cccc3cc(S(=O)(=O)O)ccc23)c1` stands “inactive”; under `O=C(Nc1cccc2cc(S(=O)(=O)O)ccc12)c1cc(NC(=O)c2ccco2)cc(C(=O)Nc2cccc3cc(S(=O)(=O)O)ccc23)c1`, “inactive”.
